What was measured:
[1] = test system: L1 larvae of the Australian sheep blowfly (Lucilia cuprina); assay: Lucilia cuprina test; assay type: in vivo; conditions: application rate 100 ppm, after 2 days
Protocol: (§1) Solvent: dimethyl sulphoxide
(§2) To produce a suitable active compound preparation, 10 mg of active compound are mixed with 0.5 ml of dimethyl sulphoxide, and the concentrate is diluted with water to the desired concentration.
About 20 L1 larvae of the Australian sheep blowfly (Lucilia cuprina) are transferred into a test vessel containing minced horsemeat and the active compound preparation of the desired concentration.
After 2 days, the kill in % is determined. 100% means that all the larvae have been killed; 0% means that no larvae have been killed.

[2] = log P (neutral) by HPLC on reversed-phase column (C 18), EEC Directive 79/831 Annex V.A8; assay type: physicochemical; conditions: HPLC reversed-phase C 18, 55° C., neutral range pH 7.8, ammonium hydrogencarbonate/acetonitrile; for chromatographic logP: reversed-phase HPLC column (C 18)
[3] = test system: caterpillars of the armyworm (Spodoptera frugiperda); assay: Spodoptera frugiperda - spray test; assay type: in vivo; conditions: application rate 500 g/ha, maize leaf discs, after 7 days
Protocol: (§3) Solvent: 78.0 parts by weight of acetone • • 1.5 parts by weight of dimethylformamide
(§4) Emulsifier: alkylaryl polyglycol ether
(§5) To produce a suitable active compound preparation, 1 part by weight of active compound is dissolved with the stated parts by weight of solvent and made up with water containing an emulsifier concentration of 1000 ppm until the desired concentration is attained. To produce further test concentrations, the preparation is diluted with emulsifier-containing water.
Leaf discs of maize (Zea mays) are sprayed with an active compound preparation of the desired concentration and, after drying, populated with caterpillars of the armyworm (Spodoptera frugiperda).
After 7 days, the efficacy in % is determined. 100% means that all the caterpillars have been killed; 0% means that no caterpillar has been killed.

[4] = test system: adult houseflies (Musca domestica); assay: Musca domestica test; assay type: in vivo; conditions: application rate 100 ppm, after 2 days
Protocol: as §1, §2
Vessels containing a sponge treated with sugar solution and the active compound preparation of the desired concentration are populated with 10 adult houseflies (Musca domestica).
After 2 days, the kill in % is determined. 100% means that all of the flies have been killed; 0% means that none of the flies have been killed.

[5] = test system: larvae of the mustard beetle (Phaedon cochleariae); assay: Phaedon cochleariae - spray test; assay type: in vivo; conditions: application rate 500 g/ha, Chinese cabbage leaf discs, after 7 days
Protocol: as §3, §4, §5
After 7 days, the efficacy in % is determined. 100% means that all the beetle larvae have been killed; 0% means that no beetle larvae have been killed.

[6] = test system: engorged adult female cattle ticks (Boophilus microplus); assay: Boophilus microplus - injection test; assay type: in vivo; conditions: application rate 20 μg/animal, assessed after 7 days
Protocol: as §1
To produce a suitable active compound preparation, 10 mg of active compound are mixed with 0.5 ml of solvent and the concentrate is diluted with solvent to the desired concentration.
1 μl of the active compound solution is injected into the abdomen of 5 engorged adult female cattle ticks (Boophilus microplus). The animals are transferred into dishes and kept in a climate-controlled room.
Efficacy is assessed after 7 days by laying of fertile eggs. Eggs which are not visibly fertile are stored in a climate-controlled cabinet until the larvae hatch after about 42 days. An efficacy of 100% means that none of the ticks has laid any fertile eggs; 0% means that all the eggs are fertile.

[7] = test system: green peach aphid (Myzus persicae); assay: Myzus persicae - spray test; assay type: in vivo; conditions: application rate 500 g/ha, Chinese cabbage leaf discs, after 5-6 days
Protocol: Solvent: 78 parts by weight of acetone • • 1.5 parts by weight of dimethylformamide
as §4, §5
Discs of Chinese cabbage leaves (Brassica pekinensis) infested by all stages of the green peach aphid (Myzus persicae) are sprayed with an active compound preparation of the desired concentration.
After 5-6 days, the efficacy in % is determined. 100% means that all the aphids have been killed; 0% means that no aphids have been killed.

[8] = test system: unfed adult cat fleas (Ctenocephalides felis); assay: Ctenocephalides felis - oral test; assay type: in vivo; conditions: application rate 100 ppm in citrated cattle blood, after 2 days
Protocol: as §1
To produce a suitable active compound preparation, 10 mg of active compound are mixed with 0.5 ml of dimethyl sulphoxide. Dilution with citrated cattle blood gives the desired concentration.
About 20 unfed adult cat fleas (Ctenocephalides felis) are placed into a chamber which is closed at the top and bottom with gauze. A metal cylinder whose bottom end is closed with parafilm is placed onto the chamber. The cylinder contains the blood/active compound preparation, which can be imbibed by the fleas through the parafilm membrane.
After 2 days, the kill in % is determined. 100% means that all of the fleas have been killed; 0% means that none of the fleas have been killed.

[9] = test system: southern root-knot nematode (Meloidogyne incognita); assay: Meloidogyne incognita test; assay type: in vivo; conditions: application rate 20 ppm, lettuce, after 14 days
Protocol: Solvent: 125.0 parts by weight of acetone
To produce a suitable preparation of active compound, 1 part by weight of active compound is mixed with the stated amount of solvent and the concentrate is diluted with water to the desired concentration.
Vessels are filled with sand, active compound solution, an egg/larvae suspension of the southern root-knot nematode (Meloidogyne incognita) and lettuce seeds. The lettuce seeds germinate and the plants develop. The galls develop on the roots.
After 14 days, the nematicidal efficacy in % is determined by the formation of galls. 100% means that no galls were found; 0% means that the number of galls on the treated plants corresponds to the untreated control.

[10] = test system: adult cat fleas (Ctenocephalides felis); assay: Ctenocephalides felis - in vitro contact tests with adult cat fleas; assay type: in vivo; conditions: application rate 5 μg/cm^2 (500 g/ha), after 48 h
Protocol: For the coating of the test tubes, 9 mg of active compound are first dissolved in 1 ml of acetone p.a. and then diluted to the desired concentration with acetone p.a. 250 μl of the solution are distributed homogeneously on the inner walls and the base of a 25 ml test tube by turning and rocking on an orbital shaker (rocking rotation at 30 rpm for 2 h). With 900 ppm active compound solution and internal surface 44.7 cm^2, given homogeneous distribution, an area-based dose of 5 μg/cm^2 is achieved.
After the solvent has evaporated off, the tubes are populated with 5-10 adult cat fleas (Ctenocephalides felis), sealed with a perforated plastic lid and incubated in a horizontal position at room temperature and ambient humidity. After 48 h, efficacy is determined. To this end, the test tubes are stood upright and the fleas are knocked to the base of the tube. Fleas which remain motionless at the base or move in an uncoordinated manner are considered to be dead or moribund.
100% efficacy means that all the fleas were dead or moribund. 0% efficacy means that no fleas were harmed.

Row | chromatographic logP [2] | Compound | efficacy (kill in %) [1] [%] | efficacy (caterpillars killed) [3] [%] | efficacy (kill in %) [4] [%] | efficacy (beetle larvae killed) [5] [%] | log P (neutral) [2] | efficacy (no laying of fertile eggs) [6] [%] | efficacy (aphids killed) [7] [%] | efficacy (kill in %) [8] [%] | nematicidal efficacy (formation of galls) [9] [%] | efficacy (fleas dead or moribund) [10] [%]
1 | 3.71 | CCS(=O)(=O)c1ccc(-n2cnn(-c3ccc(Cl)cc3Cl)c2=O)nc1-c1nc2cc(C(F)(F)F)ncc2n1C [Example I-2, 2-(2,4-Dichlorophenyl)-4-[5-ethylsulfonyl-6-[3-methyl-6-(trifluoromethyl)imidazo[4,5-c]pyridin-2-yl]-2-pyridyl]-1,2,4-triazol-3-one] | 100 | 100 | 90 | 100 |  |  |  |  |  | 
2 |  | CCS(=O)(=O)c1ccc(-n2ccn(-c3ccc(Br)cc3)c2=O)nc1-c1nc2cc(C(F)(F)F)ncc2n1C [Example I-3] | 100 | 100 | 90 | 100 | Example I-3: logP (neutral): 3.87 ^1H-NMR(400.0 MHz, d6-DMSO): δ = | 95 | 90 | 100 |  | 
3 |  | CCS(=O)(=O)c1ccc(-n2ccc(-c3ccc(Cl)cc3)n2)nc1-c1nc2cc(C(F)(F)F)ncc2n1C [Example I-6] | 100 | 83 |  | 100 | Example I-6: logP (neutral): 4.62 ^1H-NMR(400.0 MHz, d6-DMSO): δ = |  |  | 90 |  | 
4 |  | CCS(=O)(=O)c1ccc(-n2cc(-c3ncccc3Cl)cn2)nc1-c1nc2cc(C(F)(F)F)ncc2n1C [Example I-7] | 100 | 100 |  | 100 | Example I-7: logP (neutral): 3.66 ^1H-NMR(400.0 MHz, d6-DMSO): δ = |  |  | 100 |  | 
5 |  | CCS(=O)(=O)c1ccc(-n2ncn(-c3ccc(F)cc3)c2=O)nc1-c1nc2cc(C(F)(F)F)ncc2n1C [Example I-8] |  | 100 |  | 100 | Example I-8: logP (neutral): 2.75 ^1H-NMR(400.0 MHz, d6-DMSO): δ = |  | 100 |  | 90 | 
6 |  | CCS(=O)(=O)c1ccc(-n2cc(-c3cccc(Br)c3)cn2)nc1-c1nc2cc(C(F)(F)F)ncc2n1C [Example I-12] | 100 | 100 |  | 100 | Example I-12: logP (neutral): 4.48 ^1H-NMR(400.0 MHz, d6-DMSO): δ = | 90 |  | 100 |  | 
7 |  | CCS(=O)(=O)c1ccc(-n2ncn(-c3ccc(Br)cc3)c2=O)nc1-c1nc2cc(C(F)(F)F)ncc2n1C [Example I-16] | 100 | 100 | 80 | 100 |  |  |  | 100 |  | 
8 |  | CCS(=O)(=O)c1ccc(-n2ncn(-c3ccc(Cl)cc3)c2=O)nc1-c1nc2cc(C(F)(F)F)ncc2n1C [Example I-19] | 100 | 100 | 80 | 100 | Example I-19: logP (neutral): 2.82 1H-NMR(400.0 MHz, d6-DMSO): □ = | 80 |  | 100 |  | 
9 |  | CCS(=O)(=O)c1ccc(-n2nnn(-c3ccc(Cl)cc3)c2=O)nc1-c1nc2cc(C(F)(F)F)ncc2n1C [Example I-21] | 100 | 100 |  | 100 | Example I-21: logP (neutral): 3.71: 1H-NMR(400.0 MHz, d6-DMSO): □ = |  |  | 80 |  | 
10 |  | CCS(=O)(=O)c1ccc(-n2ccc(-c3cccc(Cl)c3)n2)nc1-c1nc2cc(C(F)(F)F)ncc2n1C [Example I-23] | 100 | 100 |  | 100 | Example I-23: logP (neutral): 4.64 1H-NMR(400.0 MHz, d6-DMSO): □ = |  |  | 100 |  | 
11 |  | CCS(=O)(=O)c1ccc(-n2ccc(-c3ncccc3Cl)n2)nc1-c1nc2cc(C(F)(F)F)ncc2n1C [Example I-24] | 100 | 100 |  | 100 | Example I-24: logP (neutral): 2.80 1H-NMR(400.0 MHz, d6-DMSO): □ = |  |  |  |  | 100
12 |  | CCS(=O)(=O)c1ccc(-n2cnc(-c3ccccn3)n2)nc1-c1nc2cc(C(F)(F)F)ncc2n1C [Example I-26] |  | 100 |  | 100 | Example I-26: logP (neutral): 2.43 1H-NMR(400.0 MHz, d6-DMSO): □ = |  | 90 |  |  | 
13 |  | CCS(=O)(=O)c1ccc(-c2cnn(-c3ccccc3F)c2)nc1-c1nc2cc(C(F)(F)F)ncc2n1C [Example I-28] | 100 | 100 |  | 100 | Example I-28: logP (neutral): 3.38 1H-NMR(400.0 MHz, d6-DMSO): □ = |  |  | 100 |  | 
14 | 2.73 | CCS(=O)(=O)c1ccc(-c2ccn(-c3cccnc3)n2)nc1-c1nc2cc(C(F)(F)F)ncc2n1C [Example I-30, 2-{3-(Ethylsulfonyl)-6-[1-(pyridin-3-yl)-1H-pyrazol-3-yl]pyridin-2-yl}-3-methyl-6-(trifluoromethyl)-3H-imidazo[4,5-c]pyridine] | 100 | 100 |  | 100 |  |  | 100 |  | 90 | 
15 |  | CCS(=O)(=O)c1ccc(-n2cnn(-c3ccccc3F)c2=O)nc1-c1nc2cc(C(F)(F)F)cnc2n1C [Example I-32] | 100 | 100 | 100 | 100 | Example I-32: logP (neutral): 3.52 1H-NMR(400.0 MHz, d6-DMSO): □ = | 80 | 90 | 100 |  | 
